Patent publication US20240217946A1, “ANTIDEPRESSANT AND ANXIOLYTIC SUBSTITUTED CINNAMAMIDE COMPOUND” (TASLY PHARMACEUTICAL GROUP CO., LTD., priority 2021, published 2024)
Where “and” joins values, the source holds several entries; their conditions need not be identical. Equal entries are not always repeated. Where two headings read alike, the source gives them in different places.

Columns and labels:
[1] = Pharmacokinetics and absolute bioavailability in rats (LC-MS/MS); assay type: in vivo; settings: rat; for MRT inf: read-out: MRT0-∞
Text: A LC-MS/MS method for determination of compound I-5 and compound M2 in rat plasma was established through experiments to investigate the pharmacokinetic characteristics and absolute bioavailability of compounds in rats.
20 SPF-grade SD male rats (body weight 220±20 g), purchased from Beijing Vital River Laboratory Animal Technology Co., Ltd.
• Chromatographic column: waters BEH C18 1.7 μm; 2.1×100 mm Column • Internal standard: D-I-5 (deuterated compound I-5, with the following structural formula)
20 SD rats were randomly divided into 4 groups, with 5 rats in each group. […]
50 μL plasma was taken, 50 μL D-I-5 (20 ng/mL dissolved in acetonitrile) was added, the mixture was whirled for 30 s, then 100 μL acetonitrile was added; the mixture was fully whirled for 2 min, and was centrifuged at 4° C. at 12000 r/min for 3 min, 50 μL supernatant was taken, 50 μL aqueous solution was added for dilution, followed by whirling for Imin, and 4 μL sample was injected.
The mean plasma concentration-time curves of rats after oral intragastric administration and intravenous administration were respectively shown in FIGS. 8 and 9. Data were processed using DAS 3.0 pharmacokinetic software (Chinese Professional Committee of Mathematical Pharmacology, Shanghai, China), and statistical moment parameters of the non-compartmental model were calculated, Cmax and Tmax being measured values.

mice [2] = settings: mouse, in vivo; cited from earlier work
mice [3] = settings: 10 mg/kg continuously for 7 days; cited from earlier work
mice [4] = settings: Patent C; cited from earlier work
[5] = male, SD, plasma, po, intragastric administration 12.5 mg/kg, n = 5
[6] = male, SD, plasma, intravenous administration 2.5 mg/kg, n = 5
[7] = male, Sprague-Dawley (SD), plasma, po, intragastric administration 12.5 mg/kg, n = 5
[8] = male, Sprague-Dawley (SD), plasma, intravenous administration 2.5 mg/kg, n = 5

CC(C)CNC(=O)/C=C/c1cc2c(c(C(F)(F)F)c1)OCO2 [Compound I-5]
bioavailability ([1]; male, SD, plasma, oral, absolute bioavailability, intragastric 12.5 mg/kg vs intravenous 2.5 mg/kg, read-out: F (bioavailability, %)): 24.1% | AUC(0-t) [1, 5]: 523 ± 433 ng·h/mL | Tmax [1, 5]: 21 min | half-life [1, 5]: 55.8 ± 22.8 min | C0 [1, 6]: 2050 ± 907 ng/mL | half-life [1, 6]: 39.6 ± 4.2 min | concentration at 0.08 h ([1]; male, SD, plasma, iv, 2.5 mg/kg, single intravenous 2.5 mg/kg, 0.08 h, read-out: Plasma concentration, Mean): 1150 ng/mL | concentration at 0.25 h ([1]; male, SD, plasma, iv, 2.5 mg/kg, single intravenous 2.5 mg/kg, 0.25 h, read-out: Plasma concentration, Mean): 393 ng/mL | concentration at 0.5 h ([1]; male, SD, plasma, iv, 2.5 mg/kg, single intravenous 2.5 mg/kg, 0.50 h): 152 ng/mL | concentration at 1 h ([1]; male, SD, plasma, iv, 2.5 mg/kg, single intravenous 2.5 mg/kg, 1 h, read-out: Plasma concentration, Mean): 60.3 ng/mL | concentration at 2 h ([1]; male, SD, plasma, iv, 2.5 mg/kg, single intravenous 2.5 mg/kg, 2 h): 16.8 ng/mL | concentration at 3 h ([1]; male, SD, plasma, iv, 2.5 mg/kg, single intravenous 2.5 mg/kg, 3 h): 6.9 ng/mL | concentration at 4 h ([1]; male, SD, plasma, iv, 2.5 mg/kg, single intravenous 2.5 mg/kg, 4 h, read-out: Plasma concentration, Mean): 3 ng/mL | concentration at 4 h ([1]; male, SD, plasma, iv, 2.5 mg/kg, single intravenous 2.5 mg/kg, 4 h, read-out: Plasma concentration, individual rats): 3.01 ng/mL | concentration at 0.08 h ([1]; male, SD, plasma, oral, 12.5 mg/kg, single intragastric 12.5 mg/kg, 0.08 h, read-out: Plasma concentration, Mean): 118 ng/mL | concentration at 0.25 h ([1]; male, SD, plasma, oral, 12.5 mg/kg, single intragastric 12.5 mg/kg, 0.25 h, read-out: Plasma concentration, Mean): 367 ng/mL | concentration at 0.5 h ([1]; male, SD, plasma, oral, 12.5 mg/kg, single intragastric 12.5 mg/kg, 0.50 h): 334 ng/mL | concentration at 1 h ([1]; male, SD, plasma, oral, 12.5 mg/kg, single intragastric 12.5 mg/kg, 1 h, read-out: Plasma concentration, Mean): 266 ng/mL | concentration at 2 h ([1]; male, SD, plasma, oral, 12.5 mg/kg, single intragastric 12.5 mg/kg, 2 h): 109 ng/mL | concentration at 3 h ([1]; male, SD, plasma, oral, 12.5 mg/kg, single intragastric 12.5 mg/kg, 3 h): 44.4 ng/mL | concentration at 4 h ([1]; male, SD, plasma, oral, 12.5 mg/kg, single intragastric 12.5 mg/kg, 4 h, read-out: Plasma concentration, Mean): 15.3 ng/mL | concentration at 6 h ([1]; male, SD, plasma, oral, 12.5 mg/kg, single intragastric 12.5 mg/kg, 6 h): 6.6 ng/mL | Cmax ([1]; male, SD, plasma, po, 12.5 mg/kg, intragastric administration 12.5 mg/kg, n = 5, read-out: Cmax): 361 ± 258 ng/mL | AUC(0-inf) [1, 7]: 659 ± 371 ng·h/mL | MRT inf [1, 7]: 69.6 ± 7.2 min | AUC(0-inf) [1, 8]: 438 ± 139 ng·h/mL | AUC(0-t) [1, 8]: 436 ± 138 ng·h/mL | MRT inf [1, 8]: 22.2 ± 6.6 min | Plasma concentration, individual rats ([1]; single intragastric 12.5 mg/kg, 0.08 h): 140 ng/mL and 3.59 ng/mL and 70.1 ng/mL and 214 ng/mL and 164 ng/mL | Plasma concentration, individual rats ([1]; single intragastric 12.5 mg/kg, 0.25 h): 706 ng/mL and 7.11 ng/mL and 371 ng/mL and 389 ng/mL and 361 ng/mL | Plasma concentration, individual rats ([1]; single intragastric 12.5 mg/kg, 0.50 h): 735 ng/mL and 4.71 ng/mL and 416 ng/mL and 268 ng/mL and 246 ng/mL | Plasma concentration, individual rats ([1]; single intragastric 12.5 mg/kg, 1 h): 450 ng/mL and BQL and 391 ng/mL and 92.3 ng/mL and 132 ng/mL | Plasma concentration, individual rats ([1]; single intragastric 12.5 mg/kg, 2 h): 224 ng/mL and BQL and 134 ng/mL and 35.8 ng/mL and 43.0 ng/mL | Plasma concentration, individual rats ([1]; single intragastric 12.5 mg/kg, 3 h): 84.5 ng/mL and BQL and 58.4 ng/mL and 11.3 ng/mL and 23.6 ng/mL | Plasma concentration, individual rats ([1]; single intragastric 12.5 mg/kg, 4 h): 27.3 ng/mL and BQL and 17.3 ng/mL and 10.7 ng/mL and 6.16 ng/mL | Plasma concentration, individual rats ([1]; single intragastric 12.5 mg/kg, 6 h): 5.64 ng/mL and BQL and 3.20 ng/mL and 5.66 ng/mL and 12.2 ng/mL | Plasma concentration, individual rats ([1]; single intragastric 12.5 mg/kg, 8 h): BOL and BQL (4×) | Plasma concentration, individual rats ([1]; single intravenous 2.5 mg/kg, 0.08 h, 2.5 mg/kg): 1750 ng/mL and 1150 ng/mL and 659 ng/mL and 865 ng/mL and 1350 ng/mL | Plasma concentration, individual rats ([1]; single intravenous 2.5 mg/kg, 0.25 h, 2.5 mg/kg): 628 ng/mL and 247 ng/mL and 540 ng/mL and 260 ng/mL and 291 ng/mL | Plasma concentration, individual rats ([1]; single intravenous 2.5 mg/kg, 0.50 h, 2.5 mg/kg): 243 ng/mL and 75.7 ng/mL and 225 ng/mL and 95.9 ng/mL and 120 ng/mL | Plasma concentration, individual rats ([1]; single intravenous 2.5 mg/kg, 1 h, 2.5 mg/kg): 103 ng/mL and 24.9 ng/mL and 80.2 ng/mL and 52.0 ng/mL and 41.6 ng/mL | Plasma concentration, individual rats ([1]; single intravenous 2.5 mg/kg, 2 h, 2.5 mg/kg): 25.1 ng/mL and 6.66 ng/mL and 19.3 ng/mL and 15.2 ng/mL and 17.7 ng/mL | Plasma concentration, individual rats ([1]; single intravenous 2.5 mg/kg, 3 h, 2.5 mg/kg): 8.95 ng/mL and 2.49 ng/mL and 9.76 ng/mL and 5.45 ng/mL and 7.89 ng/mL | Plasma concentration, individual rats ([1]; single intravenous 2.5 mg/kg, 4 h, 2.5 mg/kg): BQL and 3.38 ng/mL and 2.60 ng/mL and 3.08 ng/mL | Plasma concentration, individual rats ([1]; single intravenous 2.5 mg/kg, 6 h): BQL | Plasma concentration, individual rats ([1]; single intravenous 2.5 mg/kg, 8 h): BQL | immobility time of forced swimming in mice (mice [2]): significantly shorten the immobility time | reserpine-induced body temperature decrease and akinesia in mice, degree of eye closure (mice [3]): significantly antagonizing | effective anxiolytic dosage in mice elevated plus maze experiment (mice [4]): 10 mg/kg
